From patent publication US12522597B2, “Methods and compositions for modulating splicing” (Skyhawk Therapeutics, Inc., priority 2019, dated 2026)

Columns and labels:
[1] = test system: mHTT protein; test: mHTT protein assay (2B7-MW1, Mesoscale Discovery); format: cell-based, human; conditions: GM04724 (CAG 70/20) Huntington's disease patient lymphoblast cells, 48 hours, 2B7-MW1 MSD; read-out: HTT Potency - Protein EC50 mHTT (average)
Procedure, shortened: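 mHTT levels were read with the 2B7-MW1 antibody pair (N17 and polyQ epitopes) on MSD after 48 h dosing, 10 μM–0.6 nM. Cells were GM04724 HD lymphoblasts (CAG 70/20). A replica plate was read by CTG for cell viability.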

[2] = test system: MDR1-MDCK cell monolayers; test: MDCK-MDR1 permeability assay (BBB penetration potential); format: in vitro ADME; conditions: dog, MDCK-MDR1, 120 min, 5 μM, pH 7.4
Protocol: (§1) Each determination is performed in duplicate. […] Analytical conditions are outlined below.

[3] = test system: MDR1; test: as above; format: in vitro ADME; conditions: dog; for efflux ratio at 120 min, 5 μM: MDCK-MDR1, pH 7.4, MDCK-MDR1: Efflux; for Papp A→B at 120 min, 5 μM: MDCK-MDR1, pH 7.4, MDCK-MDR1: Papp A-B; for Papp B→A at 120 min, 5 μM: MDCK-MDR1, pH 7.4, MDCK-MDR1: Papp B-A
Protocol: as §1

Compound | EC50 [1] | MDCK-MDR1: % Recov A-B [2] | MDCK-MDR1: % Recov B-A [2] | efflux ratio at 120 min, 5 μM [3] | Papp A→B at 120 min, 5 μM [3] | Papp B→A at 120 min, 5 μM [3]
Cc1ccc(-c2ccc(-c3ccc(O[C@@H]4C[C@H]5CCC[C@H](N5)[C@@H]4F)nn3)c(O)c2)s1 (single isomer, unassigned) [100-ENT1] | 101 to 500 nM | 16% | 49% | 1 | 0.99 ×10⁻⁶ cm/s | 0.68 ×10⁻⁶ cm/s
Oc1cc(-c2nnco2)c(F)cc1-c1ccc(O[C@@H]2C[C@H]3CC[C@H](N3)[C@@H]2F)nn1 (stereo in doubt) [142-ENT1, 4-fluoro-2-(6-(((1S,2S,3R,5R)-2-fluoro-8-azabicyclo[3.2.1]octan-3-yl)oxy)pyridazin-3-yl)-5-(1,3,4-oxadiazol-2-yl)phenol] | 51 to 100 nM | 98% | 103% | 6 | 6.9 ×10⁻⁶ cm/s | 41.8 ×10⁻⁶ cm/s
CNC(=O)c1ccc2cc(-c3ccc(O[C@H]4C[C@]5(C)CCC[C@@](C)(N5)[C@H]4F)nn3)c(O)cc2n1 (single isomer, unassigned) [137-ENT1] | 0.01 to 15 nM | 58% | 70% | 16 | 2.56 ×10⁻⁶ cm/s | 40.1 ×10⁻⁶ cm/s
Cc1ncc(-c2ccc(-c3ccc(O[C@H]4C[C@@H]5CCC[C@@H](N5)[C@H]4F)nn3)c(O)c2)o1 (single isomer, unassigned) [93-ENT2] | 16 to 50 nM | 67% | 88% | 4 | 9.43 ×10⁻⁶ cm/s | 41.5 ×10⁻⁶ cm/s
Cn1cc(-c2ccc(-c3ccc(O[C@@H]4C[C@@H]5CCC[C@@H](N5)[C@@H]4F)nn3)c(O)c2)cn1 (single isomer, unassigned) [122-ENT2] | 501 to 10000 nM | 60% | 76% | 6 | 6.08 ×10⁻⁶ cm/s | 38.4 ×10⁻⁶ cm/s
Oc1cc2ccncc2cc1-c1ccc(O[C@H]2C[C@@H]3CCC[C@@H](N3)[C@H]2F)nn1 (single isomer, unassigned) [81-ENT2] | 501 to 10000 nM | 69% | 81% | 3 | 9.23 ×10⁻⁶ cm/s | 26.4 ×10⁻⁶ cm/s
Cn1ccc(=O)c2cc(O)c(-c3ccc(O[C@H]4C[C@]5(C)CCC[C@@](C)(N5)[C@H]4F)nn3)cc21 (single isomer, unassigned) [132-ENT1] | 101 to 500 nM | 90% | 95% | 142 | 0.1 ×10⁻⁶ cm/s | 14.7 ×10⁻⁶ cm/s
Oc1cc2ncccc2cc1-c1ccc(O[C@H]2C[C@@H]3CCC[C@@H](N3)[C@H]2F)nn1 (single isomer, unassigned) [103-ENT2] | 501 to 10000 nM | 98% | 106% | 12 | 5.15 ×10⁻⁶ cm/s | 59.9 ×10⁻⁶ cm/s
Oc1cc2ccncc2cc1-c1ccc(O[C@@H]2C[C@H]3CCC[C@H](N3)[C@@H]2F)nn1 (single isomer, unassigned) [81-ENT1] | 501 to 10000 nM | 69% | 77% | 3 | 7.34 ×10⁻⁶ cm/s | 22.8 ×10⁻⁶ cm/s
Cn1ccc(=O)c2cc(O)c(-c3ccc(O[C@H]4C[C@]5(C)CCC[C@@](C)(N5)[C@H]4F)nn3)cc21 (stereo in doubt) [132-ENT2, 7-(6-(((1R,2R,3S,5S)-2-fluoro-1,5-dimethyl-9-azabicyclo[3.3.1]nonan-3-yl)oxy)pyridazin-3-yl)-6-hydroxy-1-methylquinolin-4(1H)-one] | 101 to 500 nM | 93% | 95% | 126 | 0.11 ×10⁻⁶ cm/s | 13.4 ×10⁻⁶ cm/s
Cc1ccc(-c2ccc(-c3ccc(O[C@H]4C[C@@H]5CCC[C@@H](N5)[C@H]4F)nn3)c(O)c2)o1 (single isomer, unassigned) [99-ENT2] | 101 to 500 nM | 16% | 55% | 1 | 6.11 ×10⁻⁶ cm/s | 6.02 ×10⁻⁶ cm/s
C[C@@]12CC[C@@](C)(N1)[C@@H](F)[C@@H](Oc1ccc(-c3ccc(C#N)cc3O)nn1)C2 (single isomer, unassigned) [152-ENT2] | 501 to 10000 nM | 92% | 100% | 5 | 10 ×10⁻⁶ cm/s | 53 ×10⁻⁶ cm/s
Oc1cc(-n2ccnc2)ccc1-c1ccc(O[C@H]2C[C@@H]3CC(F)(F)[C@H](C2)N3)nn1 (single isomer, unassigned) [51-ENT2] | 501 to 10000 nM | 86% | 90% | 2 | 25.8 ×10⁻⁶ cm/s | 46.7 ×10⁻⁶ cm/s
Oc1cc(-n2ccnn2)ccc1-c1ccc(O[C@H]2C[C@@H]3CCC[C@@H](N3)[C@H]2F)nn1 (single isomer, unassigned) [69-ENT2] | 101 to 500 nM | 86% | 93% | 5 | 10.7 ×10⁻⁶ cm/s | 55.9 ×10⁻⁶ cm/s
Cc1nnc(-c2ccc(-c3ccc(O[C@@H]4C[C@H]5CCC[C@H](N5)[C@@H]4F)nn3)c(O)c2)s1 (single isomer, unassigned) [95-ENT1] | 101 to 500 nM | 72% | 78% | 10 | 4.88 ×10⁻⁶ cm/s | 48.8 ×10⁻⁶ cm/s
CN(C)C(=O)c1cc2cc(O)c(-c3ccc(O[C@@H]4C[C@@]5(C)CCC[C@](C)(N5)[C@@H]4F)nn3)cc2o1 (single isomer, unassigned) [155-ENT1] | 501 to 10000 nM | 90% | 95% | 16 | 3.71 ×10⁻⁶ cm/s | 59.4 ×10⁻⁶ cm/s
Cn1cc(-c2ccc(-c3ccc(O[C@H]4C[C@@H]5COC[C@@H](N5)[C@H]4F)nn3)c(O)c2)cn1 (single isomer, unassigned) [124-ENT2] | 501 to 10000 nM | 86% | 89% | 3 | 16.9 ×10⁻⁶ cm/s | 43.5 ×10⁻⁶ cm/s
Cn1cc(-c2cc(O)c(-c3ccc(O[C@H]4C[C@@H]5CCC(N5)[C@H]4F)nn3)cn2)cn1 (single isomer, unassigned) [63-ENT2] | 501 to 10000 nM | 96% | 107% | 38 | 0.26 ×10⁻⁶ cm/s | 9.6 ×10⁻⁶ cm/s
Oc1cc(-c2cc[nH]n2)ccc1-c1ccc(O[C@H]2C[C@@H]3CCC[C@@H](N3)[C@H]2F)nn1 (single isomer, unassigned) [66-ENT2] | 51 to 100 nM | 79% | 78% | 9 | 1.18 ×10⁻⁶ cm/s | 11.2 ×10⁻⁶ cm/s
Cn1cc(-c2ccc(-c3ccc(O[C@H]4C[C@]5(C)CC[C@@](C)(N5)[C@H]4F)nn3)c(O)c2)cn1 (single isomer, unassigned) [150-ENT1] | 51 to 100 nM | 77% | 85% | 4 | 7.55 ×10⁻⁶ cm/s | 27.9 ×10⁻⁶ cm/s
Cc1cc(-c2ccc(-c3ccc(O[C@H]4C[C@@H]5CCC[C@@H](N5)[C@H]4F)nn3)c(O)c2)ccn1 (single isomer, unassigned) [88-ENT2] | 16 to 50 nM | 51% | 71% | 4 | 5.13 ×10⁻⁶ cm/s | 21.5 ×10⁻⁶ cm/s
